Series [1] in a line: refractive index (Na D-line) (dimensionless). To be noted: 298.15 K; 101.33 kPa; Liquid; Standard Abbe refractometry.
Series [2] can be described thus: xn = mol fraction of the nth substance listed. To be noted: 101 kPa, Liquid, x2 = 0; for mass density: Vibrating tube method; for speed of sound: Pulse-echo method.

Refractive index, mass density and speed of sound data for two compounds are collected here from the NIST ThermoML archive (doi:10.1007/s10765-010-0773-1).

Numbers after ± are expanded uncertainties.

As a reminder, the refractive index is a measure of how strongly the sample bends light. On to `BrCBr` [dibromomethane], for which the refractive index in series [1] came out at 1.3851 ± 0.0011.

As a reminder, the mass density is mass per unit of volume. A word on the speed of sound: it is how fast a sound wave travels through the sample. On to `CCCCCCC` [heptane] + BrCBr, for which the mass density is reported as 688.15 ± 0.25 kg/m3 in series [2] (288.15 K); 683.94 ± 0.25 kg/m3 in series [2] (293.15 K); 679.7 ± 0.25 kg/m3 in series [2] (298.15 K); 675.44 ± 0.25 kg/m3 in series [2] (303.15 K); 671.15 ± 0.25 kg/m3 in series [2] (308.15 K); 666.83 ± 0.25 kg/m3 in series [2] (313.15 K). In addition, in series [2] (318.15 K), the mass density was 662.48 ± 0.25 kg/m3. Moreover, the speed of sound came to 1152.5 ± 1.6 m/s in series [2] (292.87 K); 1129.7 ± 1.6 m/s in series [2] (298.14 K); 1108.2 ± 1.6 m/s in series [2] (303.12 K); 1086.8 ± 1.6 m/s in series [2] (308.1 K); 1064.7 ± 1.6 m/s in series [2] (313.27 K).
